# According to patent US7838528B2, “Substituted bicyclic 8-pyrrolidinoxanthines, methods for their production, pharmaceutical formulations and their use” (sanofi-aventis Deutschland GmbH, priority 2004, dated 2010):
# Structures can show the parent of a compound that is named as a salt.
# Target: T1, DPP-IV from porcine kidney (Sus scrofa, UniProt P22411)
# T1 construct: DPP-IV from porcine kidney (Sigma Chemical GmbH, Munich DE); purchased Sigma Chemical GmbH, Munich DE; host or cells: porcine kidney (tissue-derived enzyme)
# T1 sequence (P22411 whole entry): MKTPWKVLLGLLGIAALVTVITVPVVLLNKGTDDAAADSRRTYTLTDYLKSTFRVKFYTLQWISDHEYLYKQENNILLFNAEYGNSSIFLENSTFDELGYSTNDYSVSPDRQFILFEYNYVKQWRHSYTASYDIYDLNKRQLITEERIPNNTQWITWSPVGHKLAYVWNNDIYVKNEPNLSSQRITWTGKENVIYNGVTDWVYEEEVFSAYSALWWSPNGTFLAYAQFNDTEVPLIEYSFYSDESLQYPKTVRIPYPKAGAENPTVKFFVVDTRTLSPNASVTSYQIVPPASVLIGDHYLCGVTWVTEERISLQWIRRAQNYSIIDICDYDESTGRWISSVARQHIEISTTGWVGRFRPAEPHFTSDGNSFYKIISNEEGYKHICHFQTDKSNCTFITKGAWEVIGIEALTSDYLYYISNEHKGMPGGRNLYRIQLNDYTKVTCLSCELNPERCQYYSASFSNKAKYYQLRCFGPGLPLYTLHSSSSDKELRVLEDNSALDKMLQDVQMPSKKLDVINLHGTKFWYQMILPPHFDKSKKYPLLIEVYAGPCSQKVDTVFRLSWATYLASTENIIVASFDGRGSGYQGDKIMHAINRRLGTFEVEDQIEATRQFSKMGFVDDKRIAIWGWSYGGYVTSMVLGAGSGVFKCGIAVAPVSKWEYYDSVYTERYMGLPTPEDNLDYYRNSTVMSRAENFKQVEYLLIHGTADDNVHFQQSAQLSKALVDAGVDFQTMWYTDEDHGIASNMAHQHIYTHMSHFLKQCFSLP
# Assay: Measurement of the DPP-IV activity (H-Ala-Pro-AFC fluorimetric assay)
# Type: biochemical
# Details: H-Ala-Pro-AFC 15 μM, DPP-IV 1 mU/ml, Tris/HCl pH 7.4, room temperature
# Description: Measurement of the DPP-IV Activity: […]
# a) DPP-IV from porcine kidney (Sigma Chemical GmbH, Munich DE) b) H-Ala-Pro-AFC (Bache Chemical Co., Weil am Rheine DE) […]
# c) DPP-IV (1 mU/ml, final concentration) d) H-Ala-Pro-AFC (15 μM, final concentration) • in Tris/HCl (40 mM, pH 7.4), total volume 0.2 ml The reaction was carried out at room temperature at different reaction times (typically 10 min) and stopped at the end of the reaction by adding 20 μl of ZnCl2 (1 M). The H-Ala-Pro-AFC conversion was determined fluorimetrically by measuring the emission at 535 nm after excitation at 405 nm. When inhibitors were added, the added buffer volume was adapted so that a total volume of 200 μl was maintained for the assay mixture.
# IC50 values for inhibitors were determined by varying the inhibitor concentrations with the stated substrate concentration of 15 μM. Ki and Km values were found by appropriate variation of substrate concentration and inhibitor concentration as described (Dixon, M. and Webb, E. C. (1979) Enzymes, third edition, pp. 47-206, Academic Press) which is herein incorporated by reference. The values for Km, IC50 and Ki were calculated using a commercially available software package (Leatherbarrow, R. J. (1992) GraFit Version 3.0, Erithacus Software Ltd. Staines, U.K.).
row,IC50 [nM],SMILES
1,160,"CC(C)=CCn1c(N2CC[C@@H]3NCC[C@@H]32)nc2c1c(=O)n(CC(=O)c1ccccc1)c(=O)n2C (single isomer, unassigned) [Example 1a, 8-(cis-Hexahydro-pyrrolo[3,2-b]pyrrol-1-yl)-3-methyl-7-(3-methyl-but-2-enyl)-1-(2-oxo-2-phenyl-ethyl)-3,7-dihydro-purine-2,6-dione]"
2,18,"CC(C)=CCn1c(N2CC[C@@H]3NCC[C@@H]32)nc2c1c(=O)n(CC(=O)c1ccccc1)c(=O)n2C (single isomer, unassigned) [Example 1b, 8-(cis-Hexahydro-pyrrolo[3,2-b]pyrrol-1-yl)-3-methyl-7-(3-methyl-but-2-enyl)-1-(2-oxo-2-phenyl-ethyl)-3,7-dihydro-purine-2,6-dione]"
3,34,"CC(C)=CCn1c(N2CC[C@@H]3NCC[C@@H]32)nc2c1c(=O)n(CC(=O)c1ccccc1)c(=O)n2C (relative stereo) [Example 1, 8-(cis-Hexahydro-pyrrolo[3,2-b]pyrrol-1-yl)-3-methyl-7-(3-methyl-but-2-enyl)-1-(2-oxo-2-phenyl-ethyl)-3,7-dihydropurine-2,6-dione hydrochloride]"
